Test results from US7332476B2, “Pyridyl substituted ketolide antibiotics” (Novartis AG, priority 2003, dated 2008).
Converted amounts (≈) assume the structure as drawn.

What was measured:
[1] = tested on: Haemophilus influenzae Hain_49247; experiment: MIC, broth microdilution (NCCLS); assay type: cell-based; conditions: strain ID H; broth microdilution; unit assumed
[2] = tested on: Staphylococcus epidermidis Step_14990; experiment: MIC, broth microdilution (NCCLS); assay type: cell-based; conditions: strain ID C; broth microdilution; in µg/mL (unit assumed)
How it was run: (§1)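 NCCLS broth microdilution with 2-fold serial drug dilutions (methanol stocks diluted in water); inoculum 3×10^5–7×10^5 CFU/ml in CAMHB, with 2-5% lysed horse blood for S. pneumoniae. Incubation 18-24 h at 35° C., ambient air, except S. pneumoniae (5-10% CO2). MIC is lowest concentration preventing visible growth.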

[3] = tested on: Staphylococcus aureus Stau_29213; experiment: MIC, broth microdilution (NCCLS); assay type: cell-based; conditions: strain ID A; broth microdilution; in µg/mL (unit assumed)
How it was run: as §1

[4] = tested on: Enterococcus faecalis Enfa_29212; experiment: MIC, broth microdilution (NCCLS); assay type: cell-based; conditions: strain ID E; broth microdilution
How it was run: as §1

[5] = tested on: Staphylococcus epidermidis Step_f50654; experiment: MIC, broth microdilution (NCCLS); assay type: cell-based; conditions: strain ID D; broth microdilution; in µg/mL (unit assumed)
How it was run: as §1

[6] = tested on: Streptococcus pneumoniae Stpn_Erm S 4297; experiment: MIC, broth microdilution (NCCLS); assay type: cell-based; conditions: strain ID Q; broth microdilution
How it was run: as §1

[7] = tested on: Streptococcus pneumoniae Stpn_49619; experiment: MIC, broth microdilution (NCCLS); assay type: cell-based; design: MIC, strain ID M: unit not given beside the values; conditions: strain ID M; broth microdilution
How it was run: as §1

[8] = In vivo pharmacokinetic study in rats, whole lung (IV and PO); conditions: male, Sprague-Dawley, 5 mg/kg, rat
Procedure: (§2) Animal Models. A total of 54 male Sprague-Dawley rats, weighing 200 grams in average, were evaluated for pharmacokinetic studies of representative pyridyl substituted ketolides. Rats were under overnight food restriction and received water ad libitum. Rats were acclimated for approximately 5 days before antibiotic administration.
(§3) Antibiotic Administration. Rats were given bolus administration through (IV) and oral (PO) routes. Representative pyridyl substituted ketolides and telithromycin, for comparison, were diluted in 0.85% saline to a concentration of 15.0 mg/ml, and the resulting pH was adjusted using 1N acetic acid until the compound was in solution. Approximately 200 microliters of the compound solution was administered to the rats. The target dose for IV and PO administration was 5 mg/kg and 15 mg/kg, respectively.
(§4) Sample Collection. Plasma and whole lung samples were collected from the rats. Plasma samples were obtained from blood samples by centrifugation at 3000 RPM for 10 min. Heparin was added in the plasma as an anticoagulant. Whole lung samples were homogenized in deionized water. Samples were stored at −80° C. A total of 9 time points were collected in triplicate at 0.083, 0.25, 0.5, 1, 2, 4, 6, 8, and 24 hrs. Ketolide concentrations in plasma and lung were determined by well-established non-GLP LC-MS-MS methods. PK parameters were estimated from the raw bioanalytical data using WinNolin software (Version 4.0, Pharsight Corporation, CA). […] All representative compounds were compared to telithromycin.

[9] = In vivo pharmacokinetic study in rats, plasma (IV and PO); design: species or system Sprague-Dawley rats; conditions: rat
Procedure: as §2, §3, §4

[10] = tested on: Streptococcus pyogenes Stpy_8668; experiment: MIC, broth microdilution (NCCLS); assay type: cell-based; design: MIC, strain ID G: unit not given beside the values; conditions: strain ID G; broth microdilution
How it was run: as §1

[11] = tested on: S. pneumoniae Stpn_Erm 6849; experiment: MIC, broth microdilution (NCCLS); assay type: cell-based, Streptococcus pneumoniae; conditions: strain ID P; broth microdilution; in µg/mL (unit assumed)
How it was run: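 S. pneumoniae MIC by NCCLS broth microdilution in cation-adjusted Mueller-Hinton broth with 2-5% lysed horse blood, inoculum 3×10^5–7×10^5 CFU/ml, 2-fold drug dilutions. Incubated 18-24 hours at 35° C. in 5-10% CO2; MIC is lowest concentration preventing visible growth.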

[12] = tested on: Streptococcus pneumoniae Stpn_297-749; experiment: MIC, broth microdilution (NCCLS); assay type: cell-based; design: MIC, strain ID N: unit not given here; conditions: strain ID N; broth microdilution
How it was run: as §1

[13] = tested on: Haemophilus influenzae Hain_953460299-3; experiment: MIC, broth microdilution (NCCLS); assay type: cell-based; conditions: strain ID K; broth microdilution; in µg/mL (unit assumed)
How it was run: (§5)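 NCCLS broth microdilution, inoculum 3×10^5–7×10^5 CFU/ml, 2-fold drug dilutions; CAMHB for staphylococci and enterococci, Haemophilus Test Medium for H. influenzae. Incubated 35 °C for 18-24 hours, ambient air or 5-10% CO2 for H. influenzae; MIC is lowest concentration preventing visible growth.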

[14] = tested on: Haemophilus influenzae Hain_2762; experiment: MIC, broth microdilution (NCCLS); assay type: cell-based; conditions: strain ID L; broth microdilution; in µg/mL (unit assumed)
How it was run: as §5

[15] = tested on: Haemophilus influenzae Hain_960730503-3; experiment: MIC, broth microdilution (NCCLS); assay type: cell-based; conditions: strain ID I; broth microdilution; in µg/mL (unit assumed)
How it was run: as §5

[16] = tested on: Enterococcus faecalis Enfa_bc 11148-2; experiment: MIC, broth microdilution (NCCLS); assay type: cell-based; conditions: strain ID F; broth microdilution; in µg/mL (unit assumed)
How it was run: as §5

[17] = tested on: Haemophilus influenzae Hain_960820544-3; experiment: MIC, broth microdilution (NCCLS); assay type: cell-based; conditions: strain ID J; broth microdilution; in µg/mL (unit assumed)
How it was run: as §5

[18] = tested on: Staphylococcus aureus Stau_33591; experiment: MIC, broth microdilution (NCCLS); assay type: cell-based; conditions: strain ID B; broth microdilution; unit assumed
How it was run: as §5

[19] = tested on: Streptococcus pneumoniae Stpn_280-962; experiment: MIC, broth microdilution (NCCLS); assay type: cell-based; design: MIC, strain ID O: unit not given beside the values; conditions: strain ID O; broth microdilution
How it was run: as §1

C=C[C@]12OC(=O)N(CCCCn3cnc(-c4cnccc4Cl)c3)[C@@H]1[C@@H](C)C(=O)[C@H](C)C[C@](C)(OC)[C@H](OC1O[C@H](C)C[C@H](N(C)C)[C@H]1O)[C@@H](C)C(=O)[C@@H](C)C(=O)O[C@@H]2CC (stereo partly drawn) [XXX]
MIC, strain ID H [1]: 3.13 mg/L (≈ 3.65 µM) | MIC, strain ID C [2]: 0.2 | MIC, strain ID A [3]: 0.2 | MIC, strain ID E [4]: =0.05 | MIC, strain ID D [5]: 0.1 | MIC, strain ID Q [6]: =0.05 | MIC, strain ID M [7]: =0.05 | half-life ([8]; IV, whole lung, read-out: t1/2, IV Lung (converted)): 1.2 h | Kp ([8]; lung/plasma, iv, read-out: L/P ratio, IV): 75 | half-life ([9]; male, Sprague-Dawley, 5 mg/kg, IV, plasma, read-out: t1/2, IV Plasma (converted)): 1 h | AUC ([9]; male, Sprague-Dawley, plasma, IV, dose IV = 5 mg/kg (Compound XIV: IV = 15)): 2.1 µg·h/mL | clearance ([9]; male, Sprague-Dawley, plasma, intravenous): 7.26 L/h/kg | Vd ([9]; male, Sprague-Dawley, plasma, intravenous, read-out: Vss): 8 L/kg | F, PO ([9]; PO = 15 mg/kg): 21% | MIC, strain ID G [10]: =0.05 | MIC, strain ID P [11]: 0.4 | MIC, strain ID N [12]: =0.05 | MIC, strain ID K [13]: 3.13 | MIC, strain ID L [14]: 0.78 | MIC, strain ID I [15]: 6.25 | MIC, strain ID F [16]: 0.4 | MIC, strain ID J [17]: 6.25 | MIC, strain ID B [18]: > 50 mg/L | MIC, strain ID O [19]: =0.05
